Measurements from ChEMBL document CHEMBL1121952, “Directional probes of the hydrophobic component of the aromatic ring binding site of norepinephrine N-methyltransferase” (J Med Chem, 1982).
Blank lines part the entries; values can stand above or below the molecule they belong to.

Key:
[1] = target: T1, Phenylethanolamine N-methyltransferase (Bos taurus, UniProt P10938); assay: (§1) The inhibitory constant(Ki) value for Norepinephrine N-methyl-transferase was calculated
T1 sequence (P10938 whole entry): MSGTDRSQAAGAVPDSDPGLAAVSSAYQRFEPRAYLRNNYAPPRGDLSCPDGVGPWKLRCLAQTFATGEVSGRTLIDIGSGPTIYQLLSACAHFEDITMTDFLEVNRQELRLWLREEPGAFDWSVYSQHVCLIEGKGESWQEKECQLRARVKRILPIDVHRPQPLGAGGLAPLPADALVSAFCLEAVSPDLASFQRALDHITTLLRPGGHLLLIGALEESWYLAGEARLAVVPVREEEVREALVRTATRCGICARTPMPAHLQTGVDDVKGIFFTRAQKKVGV

[2] = Vmax/Km x100 value of the compound; format: ADME
[3] = compound: NCC(O)c1cccc2ccccc12; assay: as §1
[4] = compound: NCC(O)c1cccc(-c2ccccc2)c1; assay: as §1
[5] = compound: NCC(O)c1ccc2ccccc2c1; assay: as §1
[6] = compound: NCC(O)c1ccc(-c2ccccc2)cc1; assay: as §1

Molecule: CC(N)Cc1cccc(-c2ccccc2)c1 (stereo not drawn)
Ki [1]: > 2000 µM

Molecule: NCC(O)c1cccc2ccccc12 (stereo not drawn)
Vmax / Kmax100 [2]: 1.29

Molecule: NC[C@@H](O)c1ccccc1
Vmax / Kmax100 [2]: 1.62

Molecule: CC(N)Cc1ccc(-c2ccccc2)cc1 (stereo not drawn)
Ki [1]: 262 µM

B1: Phenylethanolamine N-methyltransferase (Bos taurus), P10938 (protein)
chain: T1 sequence (P10938 whole entry)
Km [3]: 132 µM
Km [4]: 656 µM
Km [5]: 20 µM
Km [6]: 64 µM

Other lines, results leading:

Vmax / Kmax100 [2]: 5.44
Molecule: NCC(O)c1ccc(-c2ccccc2)cc1 (stereo not drawn)

Ki [1]: 89 µM
Molecule: CC(N)c1cccc(-c2ccccc2)c1 (stereo not drawn)

Vmax / Kmax100 [2]: 1.42
Molecule: NCC(O)c1cccc(-c2ccccc2)c1 (stereo not drawn)

Vmax / Kmax100 [2]: 5.6
Molecule: NCC(O)c1ccc2ccccc2c1 (stereo not drawn)

Ki [1]: 737 µM
Molecule: CC(N)c1ccc(-c2ccccc2)cc1 (stereo not drawn)
